In US9771369B2, “Compounds and methods for kinase modulation, and indications therefor” (Plexxikon Inc., priority 2014, dated 2017):

How the values were obtained:
[1] = target: c-kit mutant D816V (Homo sapiens (Human), UniProt P10721, D816V/DEL694-753); assay: c-Kit mutant D816V biochemical assay (AlphaScreen kinase activity)
Method in brief: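 Recombinant His-tagged c-Kit D816V kinase domain (residues 551-934, insert 694-753 deleted, E. coli-expressed) phosphorylating 30 nM biotin-(E4Y)10 with 10 μM ATP, HEPES pH 7.2, Mg/Mn, 5% DMSO; 30 min, room temperature. Phosphorylation detected by AlphaScreen (streptavidin donor/PY30 acceptor beads); IC50 from 8-point 1:3 series.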

[2] = system: BaF3-FL KIT D816V or BaF3-FL KIT V560G/D816V cell line; assay: Cell-based assays of c-Kit mutant kinase activity (cell proliferation, ATPlite); details: at least one of the c-kit cell assays of Example 7
Method in brief: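 BaF3 cells dependent on transfected full-length human KIT D816V or V560G/D816V (pCI-Neo, CMV promoter) were seeded at 1×10^4 cells/well and exposed to 8-point 1:3 dilutions from 10 μM top (0.2% DMSO) for three days at 37° C. ATPlite luminescence gave cell number; IC50 from concentration-response.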

c-kit mutant D816V, sequence (P10721 other isoform, or with tags, fused parts or gaps D816V/del 694-753): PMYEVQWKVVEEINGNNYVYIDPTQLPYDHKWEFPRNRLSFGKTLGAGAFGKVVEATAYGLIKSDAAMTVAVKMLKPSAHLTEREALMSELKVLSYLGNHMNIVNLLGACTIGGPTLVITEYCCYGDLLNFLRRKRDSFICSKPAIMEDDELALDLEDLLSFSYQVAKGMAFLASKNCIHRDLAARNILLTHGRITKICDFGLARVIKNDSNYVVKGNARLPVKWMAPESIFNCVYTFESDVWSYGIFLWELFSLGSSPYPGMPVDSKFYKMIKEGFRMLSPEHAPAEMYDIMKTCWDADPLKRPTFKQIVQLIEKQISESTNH

Row | SMILES | IC50 [1] [µM] | IC50 [2] [nM]
1 | COc1ccc(-c2cc3c(N4CCC(C)(c5nc(C)c(-c6cccc(OC(F)F)c6)[nH]5)CC4)ncnc3[nH]2)cn1 [P-3193, 4-[4-[5-[3-(difluoromethoxy)phenyl]-4-methyl-1H-imidazol-2-yl]-4-methyl-1-piperidyl]-6-(6-methoxy-3-pyridyl)-7H-pyrrolo[2,3-d]pyrimidine] | 0.0001 to 1 | < 10000
2 | Cc1nc(C2(C)CCN(c3ncnc4[nH]c(-c5ccc(C#N)cc5)cc34)CC2)[nH]c1-c1cccc(OC(F)F)c1 [P-3194, 4-[4-[4-[5-[3-(difluoromethoxy)phenyl]-4-methyl-1H-imidazol-2-yl]-4-methyl-1-piperidyl]-7H-pyrrolo[2,3-d]pyrimidin-6-yl]benzonitrile] | 0.0001 to 1 | < 10000
3 | Cc1nc(C2(C)CCN(c3ncnc4[nH]c(-c5ccc(C#N)cc5)cc34)CC2)[nH]c1-c1ccc(OC(F)F)cc1 [P-3195, 4-[4-[4-[5-[4-(difluoromethoxy)phenyl]-4-methyl-1H-imidazol-2-yl]-4-methyl-1-piperidyl]-7H-pyrrolo[2,3-d]pyrimidin-6-yl]benzonitrile] | 0.0001 to 1 | < 10000
4 | Cc1cc2c(N3CCC(C)(c4nc(C)c(-c5ccc(OC(F)F)cc5)[nH]4)CC3)ncnc2[nH]1 [P-3196, 4-[4-[5-[4-(difluoromethoxy)phenyl]-4-methyl-1H-imidazol-2-yl]-4-methyl-1-piperidyl]-6-methyl-7H-pyrrolo[2,3-d]pyrimidine] | 0.0001 to 1 | < 10000
5 | CCc1[nH]c(C2CCN(c3ncnc4[nH]c(-c5cnn(C(F)F)c5)cc34)CC2)nc1C [P-3197, 6-[1-(difluoromethyl)pyrazol-4-yl]-4-[4-(5-ethyl-4-methyl-1H-imidazol-2-yl)-1-piperidyl]-7H-pyrrolo[2,3-d]pyrimidine] | 0.0001 to 1 | < 10000
6 | CCc1[nH]c(C2CCN(c3ncnc4[nH]c(-c5ccc(C#N)cc5)cc34)CC2)nc1C [P-3198, 4-[4-[4-(5-ethyl-4-methyl-1H-imidazol-2-yl)-1-piperidyl]-7H-pyrrolo[2,3-d]pyrimidin-6-yl]benzonitrile] | 0.0001 to 1 | < 10000
7 | COc1ccc(-c2[nH]c(C3(C)CCN(c4ncnc5[nH]c(-c6ccc(C(=O)O)cc6)cc45)CC3)nc2C)cc1F [P-3199, 4-[4-[4-[5-(3-fluoro-4-methoxy-phenyl)-4-methyl-1H-imidazol-2-yl]-4-methyl-1-piperidyl]-7H-pyrrolo[2,3-d]pyrimidin-6-yl]benzoic acid] | 0.0001 to 1 | < 10000
8 | Cc1nc(C2(C)CCN(c3ncnc4[nH]nc(C)c34)CC2)[nH]c1-c1ccc(Cl)cc1 [P-3200, 4-[4-[5-(4-chlorophenyl)-4-methyl-1H-imidazol-2-yl]-4-methyl-1-piperidyl]-3-methyl-1H-pyrazolo[3,4-d]pyrimidine] | 0.0001 to 1 | < 10000
9 | Cc1nc(C2(C)CCN(c3ncnc4[nH]nc(C)c34)CC2)[nH]c1-c1cccc(OC(F)F)c1 [P-3201, 4-[4-[5-[3-(difluoromethoxy)phenyl]-4-methyl-1H-imidazol-2-yl]-4-methyl-1-piperidyl]-3-methyl-1H-pyrazolo[3,4-d]pyrimidine] | 0.0001 to 1 | < 10000
10 | COc1ccc(-c2[nH]c(C3(C)CCN(c4ncnc5[nH]nc(C)c45)CC3)nc2C)cc1F [P-3202, 4-[4-[5-(3-fluoro-4-methoxy-phenyl)-4-methyl-1H-imidazol-2-yl]-4-methyl-1-piperidyl]-3-methyl-1H-pyrazolo[3,4-d]pyrimidine] | 0.0001 to 1 | < 10000
11 | Cc1nc(C2(C)CCN(c3ncnc4[nH]nc(C)c34)CC2)[nH]c1-c1ccc2c(c1)OC(F)(F)O2 [P-3203, 4-[4-[5-(2,2-difluoro-1,3-benzodioxol-5-yl)-4-methyl-1H-imidazol-2-yl]-4-methyl-1-piperidyl]-3-methyl-1H-pyrazolo[3,4-d]pyrimidine] | 0.0001 to 1 | < 10000
12 | Fc1ccc(-c2cc3c(N4CCC(c5nnc(-c6ccc(F)cc6)[nH]5)CC4)ncnc3[nH]2)cc1 [P-3206, 6-(4-fluorophenyl)-4-[4-[5-(4-fluorophenyl)-4H-1,2,4-triazol-3-yl]-1-piperidyl]-7H-pyrrolo[2,3-d]pyrimidine] | 0.0001 to 1 | < 10000
13 | COc1cc(-c2cc3c(N4CCC(c5nnc(-c6cccc(OC(F)F)c6)[nH]5)CC4)ncnc3[nH]2)ccn1 [P-3207, 4-[4-[5-[3-(difluoromethoxy)phenyl]-4H-1,2,4-triazol-3-yl]-1-piperidyl]-6-(2-methoxy-4-pyridyl)-7H-pyrrolo[2,3-d]pyrimidine] | 1 to 10 | < 10000
14 | CCOc1ccc(-c2[nH]c(C3(C)CCN(c4ncnc5[nH]c(-c6ccc(OC)nc6)cc45)CC3)nc2C)cc1F [P-3209, 4-[4-[5-(4-ethoxy-3-fluoro-phenyl)-4-methyl-1H-imidazol-2-yl]-4-methyl-1-piperidyl]-6-(6-methoxy-3-pyridyl)-7H-pyrrolo[2,3-d]pyrimidine] | 0.0001 to 1 | < 10000
15 | CCOc1ccc(-c2[nH]c(C3(C)CCN(c4ncnc5[nH]c(-c6cnn(C(F)F)c6)cc45)CC3)nc2C)cc1F [P-3210, 6-[1-(difluoromethyl)pyrazol-4-yl]-4-[4-[5-(4-ethoxy-3-fluoro-phenyl)-4-methyl-1H-imidazol-2-yl]-4-methyl-1-piperidyl]-7H-pyrrolo[2,3-d]pyrimidine] | 0.0001 to 1 | < 10000
16 | COc1ccc(-c2[nH]c(C3(C)CCN(c4ncnc5[nH]c(-c6ccc(C#N)nc6)cc45)CC3)nc2C)cc1F [P-3211, 5-[4-[4-[5-(3-fluoro-4-methoxy-phenyl)-4-methyl-1H-imidazol-2-yl]-4-methyl-1-piperidyl]-7H-pyrrolo[2,3-d]pyrimidin-6-yl]pyridine-2-carbonitrile] | 0.0001 to 1 | < 10000
17 | COc1ccc(-c2[nH]c(C3(C)CCN(c4ncnc5[nH]c(-c6ccc(C(N)=O)cc6)cc45)CC3)nc2C)cc1F [P-3212, 4-[4-[4-[5-(3-fluoro-4-methoxy-phenyl)-4-methyl-1H-imidazol-2-yl]-4-methyl-1-piperidyl]-7H-pyrrolo[2,3-d]pyrimidin-6-yl]benzamide] | 0.0001 to 1 | < 10000
18 | COc1ccc(-c2[nH]c(C3(C)CCN(c4ncnc5[nH]c(-c6ccc(NS(C)(=O)=O)cc6)cc45)CC3)nc2C)cc1F [P-3213, N-[4-[4-[4-[5-(3-fluoro-4-methoxy-phenyl)-4-methyl-1H-imidazol-2-yl]-4-methyl-1-piperidyl]-7H-pyrrolo[2,3-d]pyrimidin-6-yl]phenyl]methanesulfonamide] | 0.0001 to 1 | < 10000
19 | COc1ccc(-c2[nH]c(C3(C)CCN(c4ncnc5[nH]c(-c6ccc(OCC(=O)O)cc6)cc45)CC3)nc2C)cc1F [P-3214, 2-[4-[4-[4-[5-(3-fluoro-4-methoxy-phenyl)-4-methyl-1H-imidazol-2-yl]-4-methyl-1-piperidyl]-7H-pyrrolo[2,3-d]pyrimidin-6-yl]phenoxy]acetic acid] | 0.0001 to 1 | < 10000
20 | COc1ccc(-c2[nH]c(C3(C)CCN(c4ncnc5[nH]c(-c6ccc(N7CCOCC7)nc6)cc45)CC3)nc2C)cc1F [P-3215, 4-[5-[4-[4-[5-(3-fluoro-4-methoxy-phenyl)-4-methyl-1H-imidazol-2-yl]-4-methyl-1-piperidyl]-7H-pyrrolo[2,3-d]pyrimidin-6-yl]-2-pyridyl]morpholine] | 0.0001 to 1 | < 10000
21 | COc1ccc(-c2[nH]c(C3(C)CCN(c4ncnc5[nH]c(-c6ccc(C(N)=O)cc6)cc45)CC3)nc2C)cc1C [P-3216, 4-[4-[4-[5-(4-methoxy-3-methyl-phenyl)-4-methyl-1H-imidazol-2-yl]-4-methyl-1-piperidyl]-7H-pyrrolo[2,3-d]pyrimidin-6-yl]benzamide] | 0.0001 to 1 | < 10000
22 | COc1ccc(-c2[nH]c(C3(C)CCN(c4ncnc5[nH]c(-c6ccc(OCC(=O)O)cc6)cc45)CC3)nc2C)cc1C [P-3217, 2-[4-[4-[4-[5-(4-methoxy-3-methyl-phenyl)-4-methyl-1H-imidazol-2-yl]-4-methyl-1-piperidyl]-7H-pyrrolo[2,3-d]pyrimidin-6-yl]phenoxy]acetic acid] | 0.0001 to 1 | < 10000
23 | CNC(=O)c1ccc(-c2cc3c(N4CCC(C)(c5nc(C)c(-c6ccc(OC)c(C)c6)[nH]5)CC4)ncnc3[nH]2)cn1 [P-3218, 5-[4-[4-[5-(4-methoxy-3-methyl-phenyl)-4-methyl-1H-imidazol-2-yl]-4-methyl-1-piperidyl]-7H-pyrrolo[2,3-d]pyrimidin-6-yl]-N-methyl-pyridine-2-carboxamide] | 0.0001 to 1 | < 10000
24 | COc1ccc(-c2[nH]c(C3(C)CCN(c4ncnc5[nH]c(-c6ccc(N7CCOCC7)nc6)cc45)CC3)nc2C)cc1C [P-3219, 4-[5-[4-[4-[5-(4-methoxy-3-methyl-phenyl)-4-methyl-1H-imidazol-2-yl]-4-methyl-1-piperidyl]-7H-pyrrolo[2,3-d]pyrimidin-6-yl]-2-pyridyl]morpholine] | 0.0001 to 1 | < 10000
25 | CNC(=O)c1ccc(-c2cc3c(N4CCC(C)(c5nc(C)c(-c6ccc(OC)c(F)c6)[nH]5)CC4)ncnc3[nH]2)cn1 [P-3220, 5-[4-[4-[5-(3-fluoro-4-methoxy-phenyl)-4-methyl-1H-imidazol-2-yl]-4-methyl-1-piperidyl]-7H-pyrrolo[2,3-d]pyrimidin-6-yl]-N-methyl-pyridine-2-carboxamide] | 0.0001 to 1 | < 10000
